Assay results from the supplement of paper PMC10307832.

Columns and labels:
Assay in all cases: relative viability (nuclei count vs DMSO), 5 days (fraction); higher = more cells survive
Dinaciclib + Palbociclib = compound: CCc1cnn2c(NCc3ccc[n+]([O-])c3)cc(N3CCCC[C@H]3CCO)nc12 [Dinaciclib] + CC(=O)c1c(C)c2cnc(Nc3ccc(N4CCNCC4)cn3)nc2n(C2CCCC2)c1=O [Palbociclib] (partner 0.5 µM)
In short: (§1)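 Relative viability equals treated-well nuclei counts divided by vehicle-well nuclei counts. Counts came from 4× images of lung cancer cell lines grown in 1536-well plates for 5 days after pin-tool dosing on the day after seeding. Dosing used one drug alone or a fixed anchor-drug dose plus five library-drug doses (not always all listed) in √10 steps, and values are medians of duplicate plates.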

Dinaciclib + Bortezomib = compound: CCc1cnn2c(NCc3ccc[n+]([O-])c3)cc(N3CCCC[C@H]3CCO)nc12 [Dinaciclib] + CC(C)C[C@H](NC(=O)[C@H](Cc1ccccc1)NC(=O)c1cnccn1)B(O)O [Bortezomib] (partner 0.002 µM)
In short: as §1

Dinaciclib + Foretinib = compound: CCc1cnn2c(NCc3ccc[n+]([O-])c3)cc(N3CCCC[C@H]3CCO)nc12 [Dinaciclib] + COc1cc2c(Oc3ccc(NC(=O)C4(C(=O)Nc5ccc(F)cc5)CC4)cc3F)ccnc2cc1OCCCN1CCOCC1 [Foretinib] (partner 0.25 µM)
In short: as §1

Dinaciclib + Pemetrexed = compound: CCc1cnn2c(NCc3ccc[n+]([O-])c3)cc(N3CCCC[C@H]3CCO)nc12 [Dinaciclib] + Nc1nc2[nH]cc(CCc3ccc(C(=O)N[C@@H](CCC(=O)O)C(=O)O)cc3)c2c(=O)[nH]1 [Pemetrexed] (partner 0.2 µM)
In short: as §1

Dinaciclib + Decitabine = compound: CCc1cnn2c(NCc3ccc[n+]([O-])c3)cc(N3CCCC[C@H]3CCO)nc12 [Dinaciclib] + Nc1ncn([C@H]2C[C@H](O)[C@@H](CO)O2)c(=O)n1 [Decitabine] (partner 2 µM)
In short: as §1

Cell Line	relative viability (Dinaciclib + Palbociclib; first compound 0.009487 µM)	relative viability (Dinaciclib + Palbociclib; first compound 0.03 µM)	relative viability (Dinaciclib + Palbociclib; first compound 0.09487 µM)	relative viability (Dinaciclib + Palbociclib; first compound 0.3 µM)	relative viability (Dinaciclib + Bortezomib; first compound 0.009487 µM)	relative viability (Dinaciclib + Bortezomib; first compound 0.03 µM)	relative viability (Dinaciclib + Bortezomib; first compound 0.09487 µM)	relative viability (Dinaciclib + Bortezomib; first compound 0.3 µM)	relative viability (Dinaciclib + Foretinib; first compound 0.009487 µM)	relative viability (Dinaciclib + Foretinib; first compound 0.03 µM)	relative viability (Dinaciclib + Foretinib; first compound 0.09487 µM)	relative viability (Dinaciclib + Foretinib; first compound 0.3 µM)	relative viability (Dinaciclib + Pemetrexed; first compound 0.009487 µM)	relative viability (Dinaciclib + Pemetrexed; first compound 0.03 µM)	relative viability (Dinaciclib + Pemetrexed; first compound 0.09487 µM)	relative viability (Dinaciclib + Pemetrexed; first compound 0.3 µM)	relative viability (Dinaciclib + Decitabine; first compound 0.009487 µM)	relative viability (Dinaciclib + Decitabine; first compound 0.03 µM)	relative viability (Dinaciclib + Decitabine; first compound 0.09487 µM)	relative viability (Dinaciclib + Decitabine; first compound 0.3 µM)
EKVX	0.323	0.234	0.114	0.113	1.02	0.451	0.109	0.149	0.93	0.0805	0.246	0.0963	0.35	0.267	0.122	0.123	0.388	0.196	0.136	0.123
EMC-BAC-2	0.46	0.323	0.224	0.248	0.978	0.779	0.137	0.148	1.14	0.319	0.159	0.148	0.451	0.381	0.288	0.259	0.991	0.26	0.22	0.24
EPLC-272H	0.275	0.0744	0.0435	0.0386	0.89	0.57	0.0541	0.0535	0.591	0.0464	0.0366	0.0314	0.189	0.0576	0.0509	0.0711	0.36	0.088	0.0389	0.0501
H3255	0.315	0.257	0.232	0.225	0.734	0.227	0.15	0.169	0.841	0.76	0.217	0.2	0.633	0.423	0.227	0.213	0.642	0.237	0.157	0.147
HARA	0.204	0.126	0.0948	0.0798	0.888	0.0756	0.0605	0.0587	0.583	0.0737	0.0603	0.0628	0.24	0.172	0.122	0.0976	0.437	0.205	0.135	0.101
HCC-15	0.673	0.292	0.107	0.132	0.628	0.106	0.0945	0.0993	0.652	0.12	0.109	0.107	0.217	0.122	0.128	0.125	0.521	0.139	0.13	0.129
HCC-44	0.9	0.798	0.367	0.342	0.883	0.115	0.106	0.102	–	–	–	–	0.665	0.695	0.388	0.351	0.804	0.406	0.344	0.317
HCC-78	0.432	0.374	0.253	0.3	0.61	0.169	0.133	0.122	0.613	0.386	0.174	0.18	0.895	0.91	0.858	0.927	0.612	0.32	0.206	0.205
